In assay [1] the test system is HeLa cells. The experiment in a line: FACS analysis of the cell cycle (propidium iodide DNA content). The class given is cell-based, human. Conditions: for cells in G1 phase / cells in G2/M phase: 24 h after treatment; for mitotic index: DMSO control 0.16. Here is the method: HeLa human cervical carcinoma cell line, the human breast cancer cell line MCF7, and the human colorectal carcinoma cell line SW480 were maintained in Dulbecco's Modified Eagle's medium (DMEM, PAA, Pasching Austria). The colorectal cell line HT29 was cultured in McCoy's 5A medium (PAA, Pasching, Austria). DMEM medium was supplemented with 10% fetal calf serum, sodium pyruvate, non-essential amino acids, penicillin and streptomycin, McCoy's 5A medium was supplemented with 10% fetal calf serum, penicillin and streptomycin. All cell lines were cultured at 37° C. in a 5% CO2 humidified atmosphere. Further, fluorescent activated cell sorting (FACS) was used successfully to analyze the cell cycle and mitotic arrest under the influence of indoloquinolizines. HeLa cells were fixed and stained for FACS analysis 24 h after compound treatment. Cells were trypsinized and combined with any floating cells, pelleted, and resuspended in 1 ml PBS. Ice cold ethanol (70%) was added, and samples were incubated at −20° C. until analysis. After fixation the cells were pelleted, resuspended in 500 μl staining solution (50 μg/ml propidium iodide, 0.1 mg/ml RNase A, 0.05% Triton X-100) and incubated for 40 min at 37° C. 3 ml PBS were added; the cells were pelleted again and resuspended in 500 μl PBS. The DNA content was measured with a Becton Dickinson LSRII and analyzed with FlowJo 7.5 software. The cell cycle of compound treated HeLa cells was analyzed by fluorescence activated cell sorting (FIG. 1). […] A similar distribution is given in (−)-1-01 treated cells (FIGS. 1c and 1d); here 9% are in G1 and 38% in G2/M phase (25 μM) respectively; 8% in G1 and 40% in G2/M phase (50 μM). This means that the mitotic index is increased by more than two fold (from 0.16 to 0.38 respectively 0.40), indicating a mitotic arrest after compound treatment.

Assay [2] relates to HeLa cells. The experiment in a line: WST-1 cell viability and proliferation assay. Format: cell-based, human. Conditions: 19 h; for cell proliferation rate (percent of DMSO control): 50 μM; for IC50: calculated from two and three experiments respectively. How it is done: (§1) HeLa human cervical carcinoma cell line, the human breast cancer cell line MCF7, the African green monkey kidney cell line BS-C-1 and the human colorectal carcinoma cell lines HCT116 and SW480 were maintained in Dulbecco's Modified Eagle's medium (DMEM, PAA, Pasching Austria). The colorectal cell line HT29 was cultured in McCoy's 5A medium (PAA, Pasching, Austria). The prostate carcinoma cells PC3 and the osteosarcoma cells Saos2 were cultured in RPMI medium (PAA, Pasching Austria). All media were supplemented with 10% fetal calf serum, L-glutamine, penicillin and streptomycin. All cell lines were maintained at 37° C. in a 5% CO2 humidified atmosphere.
(§2) The cell proliferation was determined as a function of the metabolic activity by means of the cell proliferation reagent WST-1 (Roche, Mannheim Germany). Cells were plated in quadruplicates into the wells of 96 well plates and were allowed to attach for 24 hours. Cells were then treated with different concentrations of the compounds for 19 hours. All samples contained 0.5% DMSO. Control cells were treated with 0.5% DMSO or 20 μM doxorubicin or 1 μM staurosporine. After the treatment the WST-1 reagent was added to the cells according to the manufacturer's protocol. The absorbance was measured with the TECAN Inifinite® M200 plate reader at 450/690 nm. The blank value was subtracted from each value and the percentage of viable cells was determined compared to the DMSO treated cells.
(§3) The biological activity of the indoloquinolizines was evaluated in different cell lines by means of WST-1 assay. Cells were treated with different compound concentrations (3.125 up to 50 μM) for 19 h. In HeLa cells the (−)-enantiomers of 1-01 and 1-04 caused the most dramatic decrease in cell proliferation rate with increasing concentrations (FIG. 3). At 50 μM concentration (−)-1-01 reduced the cell proliferation rate to 60% and (−)-1-04 to 67% (FIG. 3).

The test system of assay [3] is colorectal cell line HT29. The experiment in a line: WST-1 cell viability and proliferation assay. The class given is cell-based. Conditions: HT29, 3.125 up to 50 μM, 19 h. How it is done:
as §1, §2, §3

The next assay has as its system osteosarcoma cells Saos2. The assay can be described thus: WST-1 cell viability and proliferation assay. Conditions: Saos2, 3.125 up to 50 μM, 19 h. The class given is cell-based. Here is the method: as §1, §2, §3
The subject of assay [4] is prostate carcinoma cells PC3. The assay can be described thus: WST-1 cell viability and proliferation assay. Format: cell-based. Conditions: PC3, 3.125 up to 50 μM, 19 h. Here is the method:
as §1, §2, §3

The next assay relates to HCT116 cells. The experiment in a line: Apo-ONE homogeneous caspase-3/7 assay (apoptosis). The class given is cell-based, human. Conditions: HCT116, 42 h of treatment. How it is done:
as §1
(§4) Therefore we measured the caspase-3/7 activity in different cell lines with the Apo-ONE® homogeneous caspase-3/7 assay.
(§5) Caspase-3/7 activities were determined using the Apo-ONE® homogeneous caspase-3/7 assay (Promega, Mannheim Germany) according to the manufacturer's protocol. Briefly, cells were plated in quadruplicates in 384-well cell culture plate. After 24 hours cells were exposed for 42 hours to the compounds at different concentrations. Control cells were treated with 0.5% DMSO or staurosporine (STS). Subsequently cells were lysed with a lysis buffer containing the caspase-3/7 substrate Z-DEVD-R110 and were incubated at room temperature until further analysis. The fluorescence was detected with the TECAN Inifinite® M200 plate reader at excitation/emission wavelength 485/520 nm. The blank value was subtracted from each value and the relative caspase-3/7 activity was calculated compared to the DMSO treated cells.
(§6) These findings correlate with our results from the cell viability assays for these indoloquinolizine.

For assay [5], the system named is HeLa cells. The experiment in a line: Apo-ONE homogeneous caspase-3/7 assay (apoptosis). Format: cell-based, human. Conditions: 42 h of treatment. Here is the method: as §1, §4, §5, §6
The subject of another assay is HT29 cell line. The assay can be described thus: Apo-ONE homogeneous caspase-3/7 assay (apoptosis). Format: cell-based. Conditions: HT29, 42 h of treatment. How it is done:
as §1, §4, §5, §6

For a further assay, the system named is PC3 cell line. The experiment in a line: Apo-ONE homogeneous caspase-3/7 assay (apoptosis). The class given is cell-based. Conditions: PC3, 42 h of treatment. How it is done:
as §1, §4, §5, §6

In the next assay the test system is Saos2 cells. The assay can be described thus: Apo-ONE homogeneous caspase-3/7 assay (apoptosis). The class given is cell-based. Conditions: Saos2, 42 h of treatment. How it is done: as §1, §4, §5, §6
A further assay has as its system all cell lines but Saos2. The experiment in a line: Apo-ONE homogeneous caspase-3/7 assay (apoptosis), summary statement. The class given is cell-based. Conditions: all cell lines but Saos2, 42 h. How it is done:
as §1, §4, §5, §6

Take `COC(=O)C1=CC(C(=O)c2ccccc2O)=CN2CCc3c([nH]c4ccccc34)C12C(=O)OC` (single isomer, unassigned; (-)) [(−)-1-01, Dimethyl-3-(2-hydroxybenzoyl)-6,7,12,12b-tetrahydroindolo[2,3a]quinolizine-1,12b-dicarboxylate]: the “cells in G1 phase” value in the assay on HeLa cells [1] (25 μM) was 9%; in the assay on HeLa cells [1] (50 μM) it was 8%. In addition, the entries for the “cells in G2/M phase” value in the assay on HeLa cells [1] (25 μM) and in the assay on HeLa cells [1] (50 μM) were 38% and 40%, respectively. The results for the mitotic index with HeLa cells [1] (25 μM) and in the assay with HeLa cells [1] (50 μM) were 0.38 and 0.40, respectively. Besides, the “cell proliferation rate (percent of DMSO control)” value in the assay with HeLa cells [2] was 60%. Besides, the IC50 in the assay on HeLa cells [2] was 28.4 ± 0.61 µM. Moreover, the “reduction in cell viability” value in [3] and in [4] was “only a slight reduction in cell viability” in each case. In addition, the “decrease in the proliferation rate compared with HeLa” value in the assay with osteosarcoma cells Saos2 is “more dramatic”. Besides, the “activation of caspase-3/7” value with HCT116 cells, in the assay on HeLa cells [5] and with Saos2 cells was “concentration dependent increase” each time. Also, the caspase-3/7 activity detected entry in the assay with HT29 cell line and in the assay on PC3 cell line was “only at the 50 μM concentration” each time. Also, the “impact on the apoptosis” value in the assay on all cell lines but Saos2 is “did not have any impact on the apoptosis”.

On to `COC(=O)C1=CC(C(=O)c2ccccc2O)=CN2CCc3c([nH]c4ccc(OC)cc34)C12C(=O)OC` (single isomer, unassigned; (-)) [(−)-1-04, Dimethyl-3-(2-hydroxybenzoyl)-9-methoxy-6,7,12,12b-tetrahydro-indolo[2,3-a]quinolizine-1,12b-dicarboxylate], for which, in the assay on HeLa cells [2], the “cell proliferation rate (percent of DMSO control)” value turned out to be 67%. In the assay on HeLa cells [2] (Homo sapiens), the IC50 was 15.7 ± 1.43 µM. In addition, the “reduction in cell viability” value in [3] and in assay [4] was “only a slight reduction in cell viability” in each case. In addition, the “decrease in the proliferation rate compared with HeLa” value in the assay on osteosarcoma cells Saos2 was “more dramatic”. In addition, the “activation of caspase-3/7” value in the assay with HCT116 cells, in the assay on HeLa cells [5] and in the assay with Saos2 cells was “concentration dependent increase” throughout. Further, the caspase-3/7 activity detected result in the assay with HT29 cell line and in the assay with PC3 cell line was “only at the 50 μM concentration” in each case. Besides, the “impact on the apoptosis” value with all cell lines but Saos2 is reported as “did not have any impact on the apoptosis”.
